# Test results published in ChEMBL document CHEMBL1156733, “Structure-activity relationship studies on a series of piperazinebenzylalcohols and their ketone and amine analogs as melanocortin-4 receptor ligands” (Bioorg Med Chem Lett, 2008).
# Molecular target: Melanocortin receptor 4 (Homo sapiens, UniProt P32245)
# Sequence (P32245 whole entry): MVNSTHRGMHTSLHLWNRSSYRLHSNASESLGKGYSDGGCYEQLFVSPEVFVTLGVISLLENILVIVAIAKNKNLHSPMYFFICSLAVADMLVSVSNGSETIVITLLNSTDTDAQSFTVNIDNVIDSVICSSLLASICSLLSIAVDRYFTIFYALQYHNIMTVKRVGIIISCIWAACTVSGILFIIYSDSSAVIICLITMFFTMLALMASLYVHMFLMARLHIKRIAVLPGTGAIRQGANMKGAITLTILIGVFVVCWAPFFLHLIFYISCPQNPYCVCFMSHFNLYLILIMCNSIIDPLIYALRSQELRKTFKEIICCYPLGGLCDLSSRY
# Description: Binding affinity to human MC4 receptor
row,Ki,Structure (SMILES)
1,280 nM,CC(C)CC(O)c1ccccc1N1CCN(C(=O)[C@H](N)Cc2ccc(Cl)cc2Cl)CC1 (some centres undefined)
2,4.2 nM,CC(C)CC(N)c1ccccc1N1CCN(C(=O)[C@@H](Cc2ccc(Cl)cc2Cl)NC(=O)[C@H](C)N)CC1 (some centres undefined)
3,16 nM,CC(C)CC(O)c1ccccc1N1CCN(C(=O)[C@@H](Cc2ccc(Cl)cc2Cl)NC(=O)[C@H](C)N)CC1 (some centres undefined)
4,91 nM,CNC(C)(C)C(=O)N[C@H](Cc1ccc(Cl)cc1Cl)C(=O)N1CCN(c2ccccc2C(=O)CC(C)C)CC1
5,26 nM,CCCC(O)c1ccccc1N1CCN(C(=O)[C@@H](Cc2ccc(Cl)cc2Cl)NC(=O)CCN)CC1 (some centres undefined)
6,110 nM,CC(C)CC(=O)c1ccccc1N1CCN(C(=O)[C@@H](Cc2ccc(Cl)cc2Cl)NC(=O)C(C)(C)N)CC1
7,330 nM,CSCCCN[C@H](Cc1ccc(Cl)cc1Cl)C(=O)N1CCN(c2ccccc2C(O)CC(C)C)CC1 (some centres undefined)
8,2 nM,CC(C)CC(N)c1ccccc1N1CCN(C(=O)[C@@H](Cc2ccc(Cl)cc2Cl)NC(=O)CN)CC1 (some centres undefined)
9,46 nM,CC(C)CC(O)c1ccccc1N1CCN(C(=O)[C@@H](Cc2ccc(Cl)cc2Cl)NC(=O)C(C)(C)N)CC1 (some centres undefined)
10,7.7 nM,CC(C)CC(N)c1ccccc1N1CCN(C(=O)[C@@H](Cc2ccc(Cl)cc2Cl)NC(=O)C(C)(C)N)CC1 (some centres undefined)
11,38 nM,CCC(O)(CC)c1ccccc1N1CCN(C(=O)[C@@H](Cc2ccc(Cl)cc2Cl)NC(=O)C(C)(C)N)CC1
12,4.7 nM,CNC(C)(C)C(=O)N[C@H](Cc1ccc(Cl)cc1Cl)C(=O)N1CCN(c2ccccc2C(N)CC(C)C)CC1 (some centres undefined)
13,47 nM,CCC(C)C(O)c1ccccc1N1CCN(C(=O)[C@@H](Cc2ccc(Cl)cc2Cl)NC(=O)CCN)CC1 (some centres undefined)
14,9 nM,CC(C)C[C@@H](O)c1ccccc1N1CCN(C(=O)[C@@H](Cc2ccc(Cl)cc2Cl)NC(=O)CN)CC1
15,49 nM,CC(C)CC(O)c1ccccc1N1CCN(C(=O)[C@@H](Cc2ccc(Cl)cc2Cl)NC(=O)C2CCCNC2)CC1 (some centres undefined)
16,53 nM,CC(C)CC(N)c1ccccc1N1CCN(C(=O)[C@@H](Cc2ccc(Cl)cc2Cl)NC(C)C)CC1 (some centres undefined)
17,13 nM,CC(C)CC(O)c1ccccc1N1CCN(C(=O)[C@@H](Cc2ccc(Cl)cc2Cl)NC(=O)CN)CC1 (some centres undefined)
18,89 nM,CC(C)CC(O)c1ccccc1N1CCN(C(=O)[C@@H](Cc2ccc(Cl)cc2Cl)NCC2CCOC2)CC1 (some centres undefined)
19,110 nM,CC(C)C(O)c1ccccc1N1CCN(C(=O)[C@@H](Cc2ccc(Cl)cc2Cl)NC(=O)CCN)CC1 (some centres undefined)
20,380 nM,CC(C)CC(O)c1ccccc1N1CCN(C(=O)[C@@H](Cc2ccc(Cl)cc2Cl)NC(C)C)CC1 (some centres undefined)
21,28 nM,CC(C)C[C@H](O)c1ccccc1N1CCN(C(=O)[C@@H](Cc2ccc(Cl)cc2Cl)NC(=O)CN)CC1
22,21 nM,CNC(C)(C)C(=O)N[C@H](Cc1ccc(Cl)cc1Cl)C(=O)N1CCN(c2ccccc2C(O)CC(C)C)CC1 (some centres undefined)

# More lines, now with the values behind:
row,Structure (SMILES),Ki
1,CC(C)CC(N)c1ccccc1N1CCN(C(=O)[C@@H](Cc2ccc(Cl)cc2Cl)N(CC2CC2)CC2CC2)CC1 (some centres undefined),350 nM
2,CC(C)CC(=O)c1ccccc1N1CCN(C(=O)[C@@H](Cc2ccc(Cl)cc2Cl)N(CC(C)C)CC(C)C)CC1,> 10000 nM
3,CCCCCN(CCCCC)[C@H](Cc1ccc(Cl)cc1Cl)C(=O)N1CCN(c2ccccc2C(N)CC(C)C)CC1 (some centres undefined),350 nM
4,CC(C)CC(O)c1ccccc1N1CCN(C(=O)[C@@H](Cc2ccc(Cl)cc2Cl)N(Cc2ccccn2)Cc2ccccn2)CC1 (some centres undefined),83 nM
5,CCC(O)(CC)c1ccccc1N1CCN(C(=O)[C@@H](Cc2ccc(Cl)cc2Cl)NC(=O)N2CCCC2=O)CC1,110 nM
6,CC(C)CC(N)c1ccccc1N1CCN(C(=O)[C@@H](Cc2ccc(Cl)cc2Cl)N(CC(C)C)CC(C)C)CC1 (some centres undefined),1200 nM
7,CC(C)CC(N)c1ccccc1N1CCN(C(=O)[C@@H](Cc2ccc(Cl)cc2Cl)N(Cc2ccccn2)Cc2ccccn2)CC1 (some centres undefined),2 nM
8,CC(C)CC(=O)c1ccccc1N1CCN(C(=O)[C@@H](Cc2ccc(Cl)cc2Cl)NC(=O)[C@H](C)N)CC1,26 nM
9,COc1cccc(CC(O)c2ccccc2N2CCN(C(=O)[C@@H](Cc3ccc(Cl)cc3Cl)NC(=O)CCN)CC2)c1 (some centres undefined),66 nM
10,CCC(O)(CC)c1ccccc1N1CCN(C(=O)[C@@H](Cc2ccc(Cl)cc2Cl)NC(=O)[C@H](C)N)CC1,18 nM
11,CCCCCN(CCCCC)[C@H](Cc1ccc(Cl)cc1Cl)C(=O)N1CCN(c2ccccc2C(O)CC(C)C)CC1 (some centres undefined),3200 nM
12,CCC(O)(CC)c1ccccc1N1CCN(C(=O)[C@@H](Cc2ccc(Cl)cc2Cl)NC(=O)CCN)CC1,11 nM
13,NCCC(=O)N[C@H](Cc1ccc(Cl)cc1Cl)C(=O)N1CCN(c2ccccc2CO)CC1,870 nM
14,CCC(O)(CC)c1ccccc1N1CCN(C(=O)[C@@H](Cc2ccc(Cl)cc2Cl)NC(=O)OC(C)(C)C)CC1,390 nM
15,CC(C)CC(=O)c1ccccc1N1CCN(C(=O)[C@@H](Cc2ccc(Cl)cc2Cl)NC(C)C)CC1,560 nM
16,CC(C)CC(N)c1ccccc1N1CCN(C(=O)[C@@H](Cc2ccc(Cl)cc2Cl)NCC2CCOC2)CC1 (some centres undefined),15 nM
17,CCC(O)(CC)c1ccccc1N1CCN(C(=O)[C@@H](Cc2ccc(Cl)cc2Cl)NC(=O)[C@@H](C)N)CC1,65 nM
18,CC(C)CC(O)c1ccccc1N1CCN(C(=O)[C@@H](Cc2ccc(Cl)cc2Cl)N(CC(C)C)CC(C)C)CC1 (some centres undefined),> 10000 nM
19,CCOC(=O)[C@H]1CCCC[C@@H]1N1CCN(C(=O)[C@@H](Cc2ccc(Cl)cc2Cl)NC(=O)CCN)CC1,6.3 nM

row,Structure (SMILES),Ki
1,CC(C)CC(=O)c1ccccc1N1CCN(C(=O)[C@@H](Cc2ccc(Cl)cc2Cl)N(Cc2ccccn2)Cc2ccccn2)CC1,110 nM
2,CSCCCN[C@H](Cc1ccc(Cl)cc1Cl)C(=O)N1CCN(c2ccccc2C(=O)CC(C)C)CC1,230 nM
3,CC(C)CC(=O)c1ccccc1N1CCN(C(=O)[C@@H](Cc2ccc(Cl)cc2Cl)NCC2CCOC2)CC1 (some centres undefined),150 nM
4,CC(C)CC(=O)c1ccccc1N1CCN(C(=O)[C@@H](Cc2ccc(Cl)cc2Cl)N(CC2CC2)CC2CC2)CC1,> 10000 nM
5,CCCCN(CCCC)[C@H](Cc1ccc(Cl)cc1Cl)C(=O)N1CCN(c2ccccc2C(=O)CC(C)C)CC1,1700 nM
6,C=CC(C)C(O)c1ccccc1N1CCN(C(=O)[C@@H](Cc2ccc(Cl)cc2Cl)NC(=O)CCN)CC1 (some centres undefined),29 nM
7,CCCCCN(CCCCC)[C@H](Cc1ccc(Cl)cc1Cl)C(=O)N1CCN(c2ccccc2C(=O)CC(C)C)CC1,5800 nM
8,CSCCCN[C@H](Cc1ccc(Cl)cc1Cl)C(=O)N1CCN(c2ccccc2C(N)CC(C)C)CC1 (some centres undefined),21 nM
9,CCC(O)(CC)c1ccccc1N1CCN(C(=O)[C@@H](Cc2ccc(Cl)cc2Cl)NC(=O)NC2CC2)CC1,42 nM
10,COc1ccccc1CC(O)c1ccccc1N1CCN(C(=O)[C@@H](Cc2ccc(Cl)cc2Cl)NC(=O)CCN)CC1 (some centres undefined),66 nM
11,CCC(O)(CC)c1ccccc1N1CCN(C(=O)[C@@H](Cc2ccc(Cl)cc2Cl)NC(=O)CNC)CC1,13 nM
12,CCC(O)(CC)c1ccccc1N1CCN(C(=O)[C@@H](Cc2ccc(Cl)cc2Cl)NC(=O)CN)CC1,26 nM
13,CCCCN(CCCC)[C@H](Cc1ccc(Cl)cc1Cl)C(=O)N1CCN(c2ccccc2C(N)CC(C)C)CC1 (some centres undefined),120 nM
14,CC(C)CC(O)c1ccccc1N1CCN(C(=O)[C@@H](Cc2ccc(Cl)cc2Cl)N(CC2CC2)CC2CC2)CC1 (some centres undefined),> 10000 nM
15,COc1ccc(CCC(O)c2ccccc2N2CCN(C(=O)[C@@H](Cc3ccc(Cl)cc3Cl)NC(=O)CCN)CC2)cc1 (some centres undefined),23 nM
16,CCCC(C)(O)c1ccccc1N1CCN(C(=O)[C@@H](Cc2ccc(Cl)cc2Cl)NC(=O)CCN)CC1 (some centres undefined),11 nM
17,CC(C)CC(=O)c1ccccc1N1CCN(C(=O)[C@@H](Cc2ccc(Cl)cc2Cl)NC(=O)CN)CC1,33 nM
18,CCCCN(CCCC)[C@H](Cc1ccc(Cl)cc1Cl)C(=O)N1CCN(c2ccccc2C(O)CC(C)C)CC1 (some centres undefined),1400 nM
